According to PubChem BioAssay AID330 (DTP/NCI, 2004):
“And” between values parts separate entries of the source, which are not always exact repeats. Equal entries are not always repeated. Inconclusive results and toxic doses are left out. The calls were made as follows: active = survival T/C of 150% or more; inactive = T/C below 125% in these data.

Tested on: P388 leukemia ip, CD2F1 mice, survival T/C
Test: NCI In Vivo Anticancer Drug Screen. Data for tumor model P388 Leukemia (intraperitoneal) in CD2F1 (CDF1) mice
Conditions: endpoint: median survival time, higher = longer survival
Procedure, shortened: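 Mice carrying the transplanted tumor received test compound or vehicle. Survival was recorded in each group, and the value is the treated-group measurement divided by that of the vehicle-treated control group.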

[1] = dose: 50.0 mg/kg/injection, schedule: Q01DX005 (ip), vehicle: saline with Tween-80
[2] = dose: 100.0 mg/kg/injection, schedule: Q01DX005 (ip), vehicle: saline with Tween-80
[3] = dose: 200.0 mg/kg/injection, schedule: Q01DX005 (ip), vehicle: saline with Tween-80
[4] = dose: 50.0 mg/kg/injection, schedule: Q01DX009 (ip), vehicle: saline
[5] = dose: 100.0 mg/kg/injection, schedule: Q01DX009 (ip), vehicle: saline
[6] = dose: 12.5 mg/kg/injection, schedule: Q01DX009 (ip), vehicle: Klucel (hydroxypropylcellulose) (HPC)
[7] = dose: 25.0 mg/kg/injection, schedule: Q01DX009 (ip), vehicle: Klucel (hydroxypropylcellulose) (HPC)
[8] = dose: 50.0 mg/kg/injection, schedule: Q01DX009 (ip), vehicle: Klucel (hydroxypropylcellulose) (HPC)
[9] = dose: 50.0 mg/kg/injection, schedule: Q01DX009 (ip), vehicle: saline with Tween-80
[10] = dose: 100.0 mg/kg/injection, schedule: Q04DX003 (ip), vehicle: Klucel (hydroxypropylcellulose) (HPC)
[11] = dose: 200.0 mg/kg/injection, schedule: Q04DX003 (ip), vehicle: Klucel (hydroxypropylcellulose) (HPC)
[12] = dose: 100.0 mg/kg/injection, schedule: Q04DX003 (ip), vehicle: saline with Tween-80
[13] = dose: 25.0 mg/kg/injection, schedule: Q01DX009 (ip), vehicle: saline with Tween-80
[14] = dose: 100.0 mg/kg/injection, schedule: Q01DX009 (ip), vehicle: saline with Tween-80

Measured: T/C

CCN(CC)C(=O)c1cc(OC)c(C(=O)N(CC)CC)cc1OC
inactive: dose: 60.0 mg/kg/injection, schedule: Q01DX005 (ip), vehicle: saline with Tween-80 100 % of control | dose: 120.0 mg/kg/injection, schedule: Q01DX005 (ip), vehicle: saline with Tween-80 108 % of control | dose: 240.0 mg/kg/injection, schedule: Q01DX005 (ip), vehicle: saline with Tween-80 101 % of control

COc1cccc2c1C(=O)c1c(O)c3c(c(O)c1C2=O)CC(O)(C(=O)COC(C)C)CC3OC1CC(N)C(O)C(C)O1 (centres undefined)
inactive: dose: 3.13 mg/kg/injection, schedule: Q04DX003 (ip), vehicle: water 97 % of control | dose: 6.25 mg/kg/injection, schedule: Q04DX003 (ip), vehicle: water 100 % of control | dose: 12.5 mg/kg/injection, schedule: Q04DX003 (ip), vehicle: water 100 % of control | dose: 25.0 mg/kg/injection, schedule: Q04DX003 (ip), vehicle: water 119 % of control | dose: 50.0 mg/kg/injection, schedule: Q04DX003 (ip), vehicle: water 109 % of control

C/C=C/C(=O)Oc1ccccc1/C=C/C(=O)CCCCCC
inactive: [1] 92 % of control | [2] 98 % of control | [3] 100 % of control

Cc1ccc2ncccc2c1N (tested in a mixture with another compound)
inactive: dose: 6.25 mg/kg/injection, schedule: Q01DX009 (ip), vehicle: gum acacia 106 % of control | dose: 12.5 mg/kg/injection, schedule: Q01DX009 (ip), vehicle: gum acacia 113 % of control | dose: 25.0 mg/kg/injection, schedule: Q01DX009 (ip), vehicle: gum acacia 107 % of control | dose: 50.0 mg/kg/injection, schedule: Q01DX009 (ip), vehicle: gum acacia 108 % of control

Cc1nc(N)n[nH]1
inactive: [4] 102 % of control | [5] 109 % of control | dose: 200.0 mg/kg/injection, schedule: Q01DX009 (ip), vehicle: saline 105 % of control | dose: 400.0 mg/kg/injection, schedule: Q01DX009 (ip), vehicle: saline 96 % of control

CCc1nc(-c2ccccc2)nc2c1nc(-c1ccccc1)n2Nc1ccccc1
inactive: [1] 90 % of control | [2] 96 % of control | [3] 91 % of control

c1ccc(N=NC(c2ccccc2)(c2ccccc2)c2ccccc2)cc1
inactive: dose: 6.25 mg/kg/injection, schedule: Q01DX009 (ip), vehicle: Klucel (hydroxypropylcellulose) (HPC) 110 % of control | [6] 110 % of control | [7] 99 % of control | [8] 107 % of control

CC(/C=C/c1ccccc1)=N\NS(=O)(=O)c1ccc(C)cc1
inactive: [1] 95 % of control | [2] 91 % of control

CC(=O)Nc1scc[n+]1Cc1ccccc1
inactive: dose: 50.0 mg/kg/injection, schedule: Q01DX005 (ip), vehicle: Klucel (hydroxypropylcellulose) (HPC) 100 % of control | dose: 100.0 mg/kg/injection, schedule: Q01DX005 (ip), vehicle: Klucel (hydroxypropylcellulose) (HPC) 100 % of control | dose: 200.0 mg/kg/injection, schedule: Q01DX005 (ip), vehicle: Klucel (hydroxypropylcellulose) (HPC) 91 % of control

CCCCCCCCn1c(Cl)c(C(=O)O)c2ccccc21
inactive: dose: 100.0 mg/kg/injection, schedule: Q01DX001 (ip), vehicle: Klucel (hydroxypropylcellulose) (HPC) 95 % of control | dose: 200.0 mg/kg/injection, schedule: Q01DX001 (ip), vehicle: Klucel (hydroxypropylcellulose) (HPC) 86 % of control | dose: 400.0 mg/kg/injection, schedule: Q01DX001 (ip), vehicle: Klucel (hydroxypropylcellulose) (HPC) 86 % of control

N#CC1N(C(=O)Oc2ccccc2)c2ccccc2N1C(=O)Oc1ccccc1
inactive: dose: 7.5 mg/kg/injection, schedule: Q01DX005 (ip), vehicle: saline with Tween-80 92 % of control | dose: 15.0 mg/kg/injection, schedule: Q01DX005 (ip), vehicle: saline with Tween-80 91 % of control

COc1cc2ccc3c(c2cc1OC)CNCC3
inactive: [4] 100 % of control | [5] 100 % of control

O=[N+]([O-])c1ccc(S/N=C\c2ccccc2)c([N+](=O)[O-])c1
inactive: [9] 97 % of control

CCC(C)C1C(=O)O[B-](F)(F)/[N+]1=C\c1ccccc1 (centres undefined)
inactive: [10] 104 % of control | [11] 109 % of control

C[C](C)(C)[Sn]([Cl])([c]1ccccc1)[C](C)(C)C
inactive: [12] 94 % of control | dose: 200.0 mg/kg/injection, schedule: Q04DX003 (ip), vehicle: saline with Tween-80 104 % of control | dose: 400.0 mg/kg/injection, schedule: Q04DX003 (ip), vehicle: saline with Tween-80 95 % of control

[CH3][Sn]1([CH3])[O]c2ccccc2C=NCCN=Cc2ccccc2[O]1
inactive: dose: 12.5 mg/kg/injection, schedule: Q01DX009 (ip), vehicle: saline 100 % of control and 91 % of control | dose: 25.0 mg/kg/injection, schedule: Q01DX009 (ip), vehicle: saline 106 % of control and 86 % of control | [4] 91 % of control | [5] 107 % of control

ClCc1ccc(Cl)c(Cl)c1Cl
inactive: [13] 100 % of control | dose: 25.0 mg/kg/injection, schedule: Q04DX003 (ip), vehicle: saline with Tween-80 100 % of control | [9] 104 % of control | dose: 50.0 mg/kg/injection, schedule: Q04DX003 (ip), vehicle: saline with Tween-80 100 % of control | [14] 109 % of control | [12] 100 % of control

C=C1CC(OC(C)=O)/C=C(/C)CCC(C(C)(C)O)CC1O (centres undefined)
inactive: dose: 14.5 mg/kg/injection, schedule: Q01DX005 (ip), vehicle: Klucel + Tween-80 96 % of control | dose: 29.0 mg/kg/injection, schedule: Q01DX005 (ip), vehicle: Klucel + Tween-80 96 % of control | dose: 58.0 mg/kg/injection, schedule: Q01DX005 (ip), vehicle: Klucel + Tween-80 97 % of control | dose: 116.0 mg/kg/injection, schedule: Q01DX005 (ip), vehicle: Klucel + Tween-80 100 % of control

O=C1C=CC(=O)N1Cc1ccco1
inactive: dose: 100.0 mg/kg/injection, schedule: Q04DX003 (ip), vehicle: saline 90 % of control | dose: 200.0 mg/kg/injection, schedule: Q04DX003 (ip), vehicle: saline 95 % of control | dose: 400.0 mg/kg/injection, schedule: Q04DX003 (ip), vehicle: saline 95 % of control

C[n+]1ccccc1NC(=O)c1ccccc1
inactive: dose: 61.5 mg/kg/injection, schedule: Q01DX001 (ip), vehicle: saline 100 % of control | dose: 123.0 mg/kg/injection, schedule: Q01DX001 (ip), vehicle: saline 104 % of control | dose: 246.0 mg/kg/injection, schedule: Q01DX001 (ip), vehicle: saline 104 % of control

Cc1ccc(C2(COC(=O)c3ccccc3)CO2)c(OC(=O)C(C)C)c1 (centres undefined)
inactive: [6] 99 % of control | [7] 95 % of control | [8] 107 % of control | dose: 100.0 mg/kg/injection, schedule: Q01DX009 (ip), vehicle: Klucel (hydroxypropylcellulose) (HPC) 105 % of control

CCOC(=O)/C(C#N)=C1/CCCN1C
inactive: [10] 107 % of control | [11] 109 % of control

Cc1cc(C)c(C2C(=O)c3ccccc3C2=O)c(C)c1
inactive: [13] 111 % of control | [9] 109 % of control | [14] 116 % of control | dose: 200.0 mg/kg/injection, schedule: Q01DX009 (ip), vehicle: saline with Tween-80 110 % of control
